Test results taken from ChEMBL document CHEMBL1153340, “Inhibitors of HIV-1 attachment. Part 2: An initial survey of indole substitution patterns” (Bioorg Med Chem Lett, 2009).

Tests used:
[1] = Volume of distribution at steady state in rat at 5 mg/kg, iv dosed as solution in PEG400/EtOH; type: ADME, organism-based; design: dose 5 mg/kg, route intravenous; conditions: in vivo, read-out: Vdss
[2] = Tmax in rat at 25 mg/kg, po dosed as solution in PEG400/EtOH; type: ADME, organism-based; design: dose 25 mg/kg, route oral; conditions: in vivo
[3] = Mean residence time in rat at 5 mg/kg, iv dosed as solution in PEG400/EtOH; type: ADME, organism-based; design: dose 5 mg/kg, route intravenous; conditions: in vivo
[4] = Permeability across human Caco-2 cells; type: ADME, cell-based; conditions: read-out: permeability
[5] = system: Human immunodeficiency virus 1; assay: Antiviral activity against pseudotype HIV1 JRFL infected in human HeLa67 cells expressing CD4/CCR5 after 3 days by luciferase reporter gene assay; type: functional, organism-based; conditions: Human immunodeficiency virus 1, JRFL, HeLa67, 72 h
[6] = Terminal half life in rat at 5 mg/kg, iv dosed as solution in PEG400/EtOH; type: ADME, organism-based; design: dose 5 mg/kg, route intravenous; conditions: in vivo, read-out: beta t1/2
[7] = Cmax in rat at 25 mg/kg, po dosed as solution in PEG400/EtOH; type: ADME, organism-based; design: dose 25 mg/kg, route oral; conditions: in vivo
[8] = Terminal half life in rat at 25 mg/kg, po dosed as solution in PEG400/EtOH; type: ADME, organism-based; design: dose 25 mg/kg, route oral; conditions: in vivo, read-out: beta t1/2
[9] = Cytotoxicity against human HeLa67 cells expressing CD4/CCR5 after 3 days by XTT assay; type: cell-based
[10] = Clearance in rat at 5 mg/kg, iv dosed as solution in PEG400/EtOH; type: ADME, organism-based; design: dose 5 mg/kg, route intravenous; conditions: in vivo
[11] = Oral bioavailability in rat at 25 mg/kg dosed as solution in PEG400/EtOH; type: ADME, organism-based; conditions: in vivo

O=C(C(=O)N1CCN(C(=O)c2ccccc2)CC1)c1c[nH]c2ccccc12
Vd [1]: 1.5 L/kg
Tmax [2]: 33 min
MRT [3]: 26 min
Papp [4]: 22.8 ×10⁻⁶ cm/s
EC50 [5]: 153 nM
half-life [6]: 30 min
Cmax [7]: 1040 ng/mL
half-life [8]: 163 min
CC50 at 72 h [9]: 339 µM
clearance [10]: 57 mL/min/kg
bioavailability [11]: 29%

CCOc1cccc2c(C(=O)C(=O)N3CCN(C(=O)c4ccccc4)CC3)c[nH]c12
EC50 [5]: 0.5 nM
CC50 at 72 h [9]: 117 µM

N#Cc1ccc2[nH]cc(C(=O)C(=O)N3CCN(C(=O)c4ccccc4)CC3)c2c1
EC50 [5]: 121000 nM
CC50 at 72 h [9]: > 300 µM

COc1ccc(Cl)c2[nH]cc(C(=O)C(=O)N3CCN(C(=O)c4ccccc4)CC3)c12
EC50 [5]: 0.07 nM
CC50 at 72 h [9]: > 300 µM

O=C(C(=O)N1CCN(C(=O)c2ccccc2)CC1)c1c[nH]c2cccc(Br)c12
EC50 [5]: 4.5 nM
CC50 at 72 h [9]: 142 µM

O=C(C(=O)N1CCN(C(=O)c2ccccc2)CC1)c1c[nH]c2cccc([N+](=O)[O-])c12
EC50 [5]: 150 nM
CC50 at 72 h [9]: > 300 µM

CC(=O)Oc1ccc2[nH]cc(C(=O)C(=O)N3CCN(C(=O)c4ccccc4)CC3)c2c1
EC50 [5]: 952 nM
CC50 at 72 h [9]: 95.2 µM

O=C(C(=O)N1CCN(C(=O)c2ccccc2)CC1)c1c[nH]c2cc(Cl)ccc12
EC50 [5]: 208 nM
CC50 at 72 h [9]: > 110 µM

COc1ccc2c(C(=O)C(=O)N3CCN(C(=O)c4ccccc4)CC3)c[nH]c2c1
EC50 [5]: 329 nM
CC50 at 72 h [9]: > 300 µM

CC(=O)Oc1cccc2[nH]cc(C(=O)C(=O)N3CCN(C(=O)c4ccccc4)CC3)c12
EC50 [5]: 24900 nM
CC50 at 72 h [9]: > 300 µM

C/C=C/n1cc(C(=O)C(=O)N2CCN(C(=O)c3ccccc3)CC2)c2ccccc21
EC50 [5]: 6760 nM
CC50 at 72 h [9]: 202 µM

O=C(C(=O)N1CCN(C(=O)c2ccccc2)CC1)c1c[nH]c2c(F)c(F)c(F)c(F)c12
EC50 [5]: 1.7 nM
CC50 at 72 h [9]: 55.7 µM

CCn1cc(C(=O)C(=O)N2CCN(C(=O)c3ccccc3)CC2)c2ccccc21
EC50 [5]: 1450 nM
CC50 at 72 h [9]: > 300 µM

O=C(C(=O)N1CCN(C(=O)c2ccccc2)CC1)c1cn(Cc2ccccc2)c2ccccc12
EC50 [5]: 13800 nM
CC50 at 72 h [9]: 182 µM

CCCCn1cc(C(=O)C(=O)N2CCN(C(=O)c3ccccc3)CC2)c2ccccc21
EC50 [5]: 2650 nM
CC50 at 72 h [9]: > 300 µM

COc1ccc2[nH]cc(C(=O)C(=O)N3CCN(C(=O)c4ccccc4)CC3)c2c1
EC50 [5]: 21100 nM
CC50 at 72 h [9]: > 300 µM

O=C(C(=O)N1CCN(C(=O)c2ccccc2)CC1)c1c[nH]c2ccc([N+](=O)[O-])cc12
EC50 [5]: 3800 nM
CC50 at 72 h [9]: 44.6 µM

CCOc1cccc2[nH]cc(C(=O)C(=O)N3CCN(C(=O)c4ccccc4)CC3)c12
EC50 [5]: 0.45 nM
CC50 at 72 h [9]: > 94.8 µM

O=C(C(=O)N1CCN(C(=O)c2ccccc2)CC1)c1c[nH]c2c(Br)ccc(OC(F)(F)F)c12
EC50 [5]: 42.8 nM
CC50 at 72 h [9]: 75.7 µM

O=C(C(=O)N1CCN(C(=O)c2ccccc2)CC1)c1c[nH]c2ccc(F)cc12
EC50 [5]: 838 nM
CC50 at 72 h [9]: > 300 µM

O=C(C(=O)N1CCN(C(=O)c2ccccc2)CC1)c1c[nH]c2ccc(Cl)cc12
EC50 [5]: 395 nM
CC50 at 72 h [9]: 46 µM

O=C(C(=O)N1CCN(C(=O)c2ccccc2)CC1)c1c[nH]c2ccc(Br)cc12
EC50 [5]: 1090 nM
CC50 at 72 h [9]: > 149 µM

O=C(C(=O)N1CCN(C(=O)c2ccccc2)CC1)c1c[nH]c2c(Br)ccc(F)c12
EC50 [5]: 0.13 nM
CC50 at 72 h [9]: 39.8 µM

Cc1ccc2[nH]cc(C(=O)C(=O)N3CCN(C(=O)c4ccccc4)CC3)c2c1
EC50 [5]: 1550 nM
CC50 at 72 h [9]: > 300 µM

O=C(C(=O)N1CCN(C(=O)c2ccccc2)CC1)c1c[nH]c2cc(F)c(Br)c(F)c12
EC50 [5]: 23.1 nM
CC50 at 72 h [9]: 20.9 µM

CCc1cccc2c(C(=O)C(=O)N3CCN(C(=O)c4ccccc4)CC3)c[nH]c12
EC50 [5]: 24.2 nM
CC50 at 72 h [9]: > 49 µM

O=C(C(=O)N1CCN(C(=O)c2ccccc2)CC1)c1c[nH]c2cc(F)c(F)cc12
EC50 [5]: > 290 nM
CC50 at 72 h [9]: 170 µM

N#Cc1cccc2c(C(=O)C(=O)N3CCN(C(=O)c4ccccc4)CC3)c[nH]c12
EC50 [5]: 4.9 nM
CC50 at 72 h [9]: 234 µM

CCCCOc1cccc2c(C(=O)C(=O)N3CCN(C(=O)c4ccccc4)CC3)c[nH]c12
EC50 [5]: 0.14 nM
CC50 at 72 h [9]: 64.5 µM

N#Cc1ccc(F)c2c(C(=O)C(=O)N3CCN(C(=O)c4ccccc4)CC3)c[nH]c12
EC50 [5]: 1.9 nM
CC50 at 72 h [9]: > 300 µM

O=C(C(=O)N1CCN(C(=O)c2ccccc2)CC1)c1c[nH]c2cc(F)cc(F)c12
EC50 [5]: 0.42 nM
CC50 at 72 h [9]: > 188 µM

O=C(C(=O)N1CCN(C(=O)c2ccccc2)CC1)c1c[nH]c2c(Br)cccc12
EC50 [5]: 17.4 nM
CC50 at 72 h [9]: 64 µM

Cc1cccc2c(C(=O)C(=O)N3CCN(C(=O)c4ccccc4)CC3)c[nH]c12
EC50 [5]: 89.5 nM
CC50 at 72 h [9]: > 218 µM

N#Cc1ccc(F)c2[nH]cc(C(=O)C(=O)N3CCN(C(=O)c4ccccc4)CC3)c12
EC50 [5]: > 500 nM
CC50 at 72 h [9]: > 300 µM

O=C(C(=O)N1CCN(C(=O)c2ccccc2)CC1)c1c[nH]c2cc(C(F)(F)F)ccc12
EC50 [5]: > 5000 nM
CC50 at 72 h [9]: 54.5 µM

Cc1ccc(C)c2c(C(=O)C(=O)N3CCN(C(=O)c4ccccc4)CC3)c[nH]c12
EC50 [5]: > 500 nM
CC50 at 72 h [9]: 202 µM

O=C(C(=O)N1CCN(C(=O)c2ccccc2)CC1)c1c[nH]c2cccc(O)c12
EC50 [5]: 20100 nM
CC50 at 72 h [9]: > 300 µM

COc1ccc(Br)c2[nH]cc(C(=O)C(=O)N3CCN(C(=O)c4ccccc4)CC3)c12
EC50 [5]: 0.13 nM
CC50 at 72 h [9]: 118 µM

O=C(C(=O)N1CCN(C(=O)c2ccccc2)CC1)c1c[nH]c2cc(Cl)c(F)cc12
EC50 [5]: > 500 nM
CC50 at 72 h [9]: 98.5 µM

Cc1ccc(F)c2c(C(=O)C(=O)N3CCN(C(=O)c4ccccc4)CC3)c[nH]c12
EC50 [5]: 0.56 nM
CC50 at 72 h [9]: 87.5 µM

COc1ccc(C#N)c2[nH]cc(C(=O)C(=O)N3CCN(C(=O)c4ccccc4)CC3)c12
EC50 [5]: 0.06 nM
CC50 at 72 h [9]: > 275 µM

O=C(C(=O)N1CCN(C(=O)c2ccccc2)CC1)c1c[nH]c2c(F)cccc12
EC50 [5]: 7.3 nM
CC50 at 72 h [9]: > 152 µM

Cn1cc(C(=O)C(=O)N2CCN(C(=O)c3ccccc3)CC2)c2ccccc21
EC50 [5]: 265 nM
CC50 at 72 h [9]: 226 µM

COc1cc2[nH]cc(C(=O)C(=O)N3CCN(C(=O)c4ccccc4)CC3)c2cc1OC
EC50 [5]: 46500 nM
CC50 at 72 h [9]: > 300 µM

O=C(C(=O)N1CCN(C(=O)c2ccccc2)CC1)c1c[nH]c2c(Cl)cccc12
EC50 [5]: 4.4 nM
CC50 at 72 h [9]: 162 µM

CC(C)Oc1cccc2[nH]cc(C(=O)C(=O)N3CCN(C(=O)c4ccccc4)CC3)c12
EC50 [5]: > 500 nM
CC50 at 72 h [9]: 150 µM

COc1ccc(F)c2c(C(=O)C(=O)N3CCN(C(=O)c4ccccc4)CC3)c[nH]c12
EC50 [5]: 0.06 nM
CC50 at 72 h [9]: > 300 µM

O=C(C(=O)N1CCN(C(=O)c2ccccc2)CC1)c1c[nH]c2c(Br)cc(F)cc12
EC50 [5]: 73.1 nM
CC50 at 72 h [9]: 22.5 µM

COc1cccc2c(C(=O)C(=O)N3CCN(C(=O)c4ccccc4)CC3)c[nH]c12
EC50 [5]: 6.6 nM
CC50 at 72 h [9]: 154 µM

O=C(C(=O)N1CCN(C(=O)c2ccccc2)CC1)c1c[nH]c2c(OCC(F)(F)F)ccc(F)c12
EC50 [5]: 0.71 nM
CC50 at 72 h [9]: 196 µM

O=C(C(=O)N1CCN(C(=O)c2ccccc2)CC1)c1c[nH]c2cccc(Cl)c12
EC50 [5]: 4.3 nM
CC50 at 72 h [9]: 212 µM

COc1cccc2[nH]cc(C(=O)C(=O)N3CCN(C(=O)c4ccccc4)CC3)c12
EC50 [5]: 0.52 nM
CC50 at 72 h [9]: > 300 µM

O=C(C(=O)N1CCN(C(=O)c2ccccc2)CC1)c1c[nH]c2cc(F)ccc12
EC50 [5]: 21.1 nM
CC50 at 72 h [9]: > 245 µM

O=C(C(=O)N1CCN(C(=O)c2ccccc2)CC1)c1c[nH]c2c(F)ccc(Br)c12
EC50 [5]: 8.2 nM
CC50 at 72 h [9]: 86 µM
